In patent US20220281821A1, “INDAZOLE COMPOUNDS AND THEIR PHARMACEUTICAL COMPOSITIONS” (Jinan University, priority 2019, published 2022):
pIC50: −log10 of the molar value.

Experiments:
Format in all cases: cell-based, mouse
[1] = target: T1, BaF3-ETV6-NTRK3 (Homo sapiens, UniProt Q16288); assay: Cell proliferation inhibition (CCK-8), BaF3-ETV6-NTRK3 stable strain; details: BaF3-ETV6-NTRK3, 72 hours
T1 construct: fused on or other part: P41212 (Transcription factor ETV6)
Description: (§1) The brief steps of stable strain construction are as follows: construct a pCDNA3.1(+) plasmid vector carrying genes such as CD74-NTRK1, ETV6-NTRK2 and ETV6-NTRK3; the plasmid was electroporated into Ba/F3 cells using the Amaxa® Cell Line Nucleofector® Kit V; 48 hours after electroporated, G418 with a final concentration of 1000 μg/ml was added for screening for two weeks, and then IL3 was removed, and continued screening to obtain polyclonal stable strains; then single clones were selected by a limiting dilution method. The stable strains were then identified using positive drugs, WB and gene sequencing; and the monoclonal clones that were identified as completely correct may be used for the study of cell proliferation inhibitory activity of inhibitors.
(§2) Cell proliferation inhibition activity study: the cells in the logarithmic growth phase were seeded into 96-well plates at 8000-12000 cells/well, and inhibitors at different concentrations (0-10 μM) were added the next day, and incubation was continued for 72 hours; then 10 μL of CCK-8 reagent was added to each well, and the incubation was continued for 1-3 hours; and then use a super microplate reader to measure their absorbance values at 450 nm and 650 nm. The half-inhibition concentration (IC50) was calculated using GraphPad Prism 8.0.0.

[2] = target: T2, BaF3-CD74-NTRK1 (Homo sapiens, UniProt P04629); assay: Cell proliferation inhibition (CCK-8), BaF3-CD74-NTRK1 stable strain; details: BaF3-CD74-NTRK1, 72 hours
T2 construct: fused on or other part: P04233 (HLA class II histocompatibility antigen gamma chain)
T2 sequence (P04629 510-796 limits assumed): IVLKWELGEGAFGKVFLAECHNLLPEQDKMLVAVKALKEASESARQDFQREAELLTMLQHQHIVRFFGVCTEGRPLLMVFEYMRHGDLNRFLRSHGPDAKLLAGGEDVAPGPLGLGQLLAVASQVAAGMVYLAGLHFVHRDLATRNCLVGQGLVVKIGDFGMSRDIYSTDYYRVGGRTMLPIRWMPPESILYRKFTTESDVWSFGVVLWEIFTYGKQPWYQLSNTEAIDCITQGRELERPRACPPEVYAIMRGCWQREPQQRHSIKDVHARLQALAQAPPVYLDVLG
Description: as §1, §2

[3] = target: T3, BaF3-ETV6-NTRK2 (Homo sapiens, UniProt Q16620); assay: Cell proliferation inhibition (CCK-8), BaF3-ETV6-NTRK2 stable strain; details: BaF3-ETV6-NTRK2, 72 hours
T3 construct: fused on or other part: P41212 (Transcription factor ETV6)
T3 sequence (Q16620 538-822 limits assumed): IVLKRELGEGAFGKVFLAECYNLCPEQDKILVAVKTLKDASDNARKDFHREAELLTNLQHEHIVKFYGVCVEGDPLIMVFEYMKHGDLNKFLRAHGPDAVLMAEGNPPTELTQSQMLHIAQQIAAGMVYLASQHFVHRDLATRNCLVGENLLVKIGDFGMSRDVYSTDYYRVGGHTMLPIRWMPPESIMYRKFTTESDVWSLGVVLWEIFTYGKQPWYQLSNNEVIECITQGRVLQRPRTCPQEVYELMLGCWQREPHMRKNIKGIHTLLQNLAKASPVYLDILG
Description: as §1, §2

T1 sequence (Q16288 whole entry, the tested form may be a part): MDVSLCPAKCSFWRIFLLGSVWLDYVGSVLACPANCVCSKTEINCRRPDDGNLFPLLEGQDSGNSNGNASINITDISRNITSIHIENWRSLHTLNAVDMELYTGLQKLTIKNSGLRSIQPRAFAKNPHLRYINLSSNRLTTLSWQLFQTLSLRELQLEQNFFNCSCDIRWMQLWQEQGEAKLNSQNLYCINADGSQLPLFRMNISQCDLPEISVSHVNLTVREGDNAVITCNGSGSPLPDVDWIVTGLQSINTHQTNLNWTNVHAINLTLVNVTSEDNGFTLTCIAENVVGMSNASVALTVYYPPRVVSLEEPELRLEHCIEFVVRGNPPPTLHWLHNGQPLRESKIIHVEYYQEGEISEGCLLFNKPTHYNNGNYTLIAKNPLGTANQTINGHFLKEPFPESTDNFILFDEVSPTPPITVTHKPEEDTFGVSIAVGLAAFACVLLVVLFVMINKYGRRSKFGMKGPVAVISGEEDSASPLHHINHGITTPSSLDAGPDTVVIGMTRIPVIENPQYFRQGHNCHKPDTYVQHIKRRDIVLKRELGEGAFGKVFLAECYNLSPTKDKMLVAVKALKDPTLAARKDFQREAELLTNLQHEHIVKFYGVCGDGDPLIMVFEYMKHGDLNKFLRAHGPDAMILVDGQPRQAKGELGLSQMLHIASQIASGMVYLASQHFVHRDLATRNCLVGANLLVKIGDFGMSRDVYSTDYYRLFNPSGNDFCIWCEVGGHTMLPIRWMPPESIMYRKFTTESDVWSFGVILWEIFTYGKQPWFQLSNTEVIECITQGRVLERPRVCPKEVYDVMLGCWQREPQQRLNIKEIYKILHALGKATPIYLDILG

| SMILES | pIC50 [1] | pIC50 [2] | pIC50 [3] |
| --- | --- | --- | --- |
| C[C@@H](Nc1ccc2[nH]nc(/C=C/c3ccccn3)c2n1)c1cc(F)cc(F)c1 [DYX-332, (R,E)-N-(1-(3,5-difluorophenyl)ethyl)-3-(2-(pyridin-2-yl)vinyl)-1H-pyrazolo[4,3-b]pyridin-5-amine] | 7.33 | 8.00 | 6.84 |
| C[C@@H](Nc1ccc2[nH]nc(/C=C/c3cnn(CCO)c3)c2c1)c1cccc(F)c1 [DYX-335, (R,E)-2-(4-(2-(5-((1-(3-fluorophenyl)ethyl)amino)-1H-indazol-3-yl)vinyl)-1H-pyrazol-1-yl)-1-ethanol] | 8.48 | 9.22 | 7.97 |
| C[C@@H](Nc1cc2c(/C=C/c3ccccn3)n[nH]c2cn1)c1cc(F)cc(F)c1 [DYX-340, (R,E)-N-(1-(3,5-difluorophenyl)ethyl)-3-(2-(pyridin-2-yl)vinyl)-1H-pyrazolo[3,4-c]pyridin-5-amine] | 7.17 | 7.73 | 6.80 |
| Fc1cc(Cl)cc(CNc2ccc3[nH]nc(/C=C/c4ccccn4)c3c2)c1 [DYX-400, (E)-N-(3-fluoro-5-chlorobenzyl)-3-(2-(pyridin-2-yl)vinyl)-1H-indazol-5-amine] | 7.39 | 7.23 | 6.81 |
| Cc1cc(F)cc(CNc2ccc3[nH]nc(/C=C/c4ccccn4)c3c2)c1 [DYX-401, (E)-N-(3-fluoro-5-methylbenzyl)-3-(2-(pyridin-2-yl)vinyl)-1H-indazol-5-amine] | 6.95 | 6.95 | 6.35 |
| N#Cc1cc(F)cc(CNc2ccc3[nH]nc(/C=C/c4ccccn4)c3c2)c1 [DYX-402, (E)-3-fluoro-5-(((3-(2-(pyridin-2-yl)vinyl)-1H-indazol-5-yl)amino)methyl)benzonitrile] | 7.65 | 7.55 | 7.27 |
| COc1cc(F)cc(CNc2ccc3[nH]nc(/C=C/c4ccccn4)c3c2)c1 [DYX-403, (E)-N-(3-fluoro-5-methoxybenzyl)-3-(2-(pyridin-2-yl)vinyl)-1H-indazol-5-amine] | 6.74 | 7.28 | 6.86 |

Further lines, results first:

| pIC50 [1] | pIC50 [2] | pIC50 [3] | SMILES |
| --- | --- | --- | --- |
| 7.98 | 7.42 | 7.49 | C[C@@H](Nc1ccc2[nH]nc(/C=C/c3ccccn3)c2c1)c1cccc(F)c1 [DYX-320, (R,E)-N-(1-(3-fluorophenyl)ethyl)-3-(2-(pyridin-2-yl)vinyl)-1H-indazol-5-amine] |
| 8.27 | 8.85 | 7.75 | C[C@@H](Nc1ccc2[nH]nc(/C=C/c3cnn(CCO)c3)c2c1)c1cc(F)cc(F)c1 [DYX-327, (R,E)-2-(4-(2-(5-((1-(3,5-difluorophenyl)ethyl)amino)-1H-indazol-3-yl)vinyl)-1H-pyrazol-1-yl)-1-ethanol] |
| 8.51 | 8.19 | 8.02 | C[C@@H](Nc1ccc2[nH]nc(/C=C/c3cnn(C)c3)c2c1)c1cc(F)cc(F)c1 [DYX-346, (R,E)-N-(1-(3,5-difluorophenyl)ethyl)-3-(2-(1-methyl-1H-pyrazol-4-yl)vinyl)-1H-indazol-5-amine] |
| 8.37 | 8.13 | 7.97 | CCn1cc(/C=C/c2n[nH]c3ccc(N[C@H](C)c4cc(F)cc(F)c4)cc23)cn1 [DYX-349, (R,E)-N-(1-(3,5-difluorophenyl)ethyl)-3-(2-(1-ethyl-1H-pyrazol-4-yl)vinyl)-1H-indazol-5-amine] |
| 8.11 | 8.19 | 7.43 | C[C@@H](Nc1ccc2[nH]nc(/C=C/c3cccnc3)c2c1)c1cc(F)cc(F)c1 [DYX-409, (R,E)-N-(1-(3,5-difluorophenyl)ethyl)-3-(2-(pyridin-3-yl)vinyl)-1H-indazol-5-amine] |
| 8.46 | 7.99 | 7.93 | C[C@@H](Nc1ccc2[nH]nc(/C=C/c3ccncc3)c2c1)c1cc(F)cc(F)c1 [DYX-410, (R,E)-N-(1-(3,5-difluorophenyl)ethyl)-3-(2-(pyridin-4-yl)vinyl)-1H-indazol-5-amine] |
